Results from PubChem BioAssay (NCI).
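Each compound was tested at five concentrations against cells in 96-well plates for 48 hours. TGI is the concentration that stops growth completely.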

Experiments:
Experiment in all cases: NCI-60 cell line screen, 48 h
786-0 renal = system: 786-0 renal
A498 renal = system: A498 renal
A549 NSCLC = system: A549 NSCLC
ACHN renal = system: ACHN renal
BT-549 breast = system: BT-549 breast
CAKI-1 renal = system: CAKI-1 renal
CCRF-CEM leukemia = system: CCRF-CEM leukemia
COLO 205 colon = system: COLO 205 colon
DU-145 prostate = system: DU-145 prostate
EKVX NSCLC = system: EKVX NSCLC
HCC-2998 colon = system: HCC-2998 colon
HCT-116 colon = system: HCT-116 colon
HCT-15 colon = system: HCT-15 colon
HL-60(TB) leukemia = system: HL-60(TB) leukemia
HOP-62 NSCLC = system: HOP-62 NSCLC
HOP-92 NSCLC = system: HOP-92 NSCLC
HS 578T breast = system: HS 578T breast
HT29 colon = system: HT29 colon
IGROV1 ovarian = system: IGROV1 ovarian
K-562 leukemia = system: K-562 leukemia
LOX IMVI melanoma = system: LOX IMVI melanoma
MALME-3M melanoma = system: MALME-3M melanoma
MCF7 breast = system: MCF7 breast
MDA-MB-231 breast = system: MDA-MB-231 breast
MDA-MB-435 = system: MDA-MB-435
MDA-N = system: MDA-N
MOLT-4 leukemia = system: MOLT-4 leukemia
NCI-H226 lung = system: NCI-H226 lung
NCI-H23 lung = system: NCI-H23 lung
NCI-H460 lung = system: NCI-H460 lung
NCI-H522 lung = system: NCI-H522 lung
NCI/ADR-RES ovarian = system: NCI/ADR-RES ovarian
OVCAR-3 ovarian = system: OVCAR-3 ovarian
OVCAR-4 ovarian = system: OVCAR-4 ovarian
OVCAR-5 ovarian = system: OVCAR-5 ovarian
OVCAR-8 ovarian = system: OVCAR-8 ovarian
PC-3 prostate = system: PC-3 prostate
RPMI-8226 leukemia = system: RPMI-8226 leukemia
RXF 393 renal = system: RXF 393 renal
SF-268 CNS = system: SF-268 CNS
SF-295 CNS = system: SF-295 CNS
SF-539 CNS = system: SF-539 CNS
SK-MEL-2 melanoma = system: SK-MEL-2 melanoma
SK-MEL-28 melanoma = system: SK-MEL-28 melanoma
SK-MEL-5 melanoma = system: SK-MEL-5 melanoma
SK-OV-3 ovarian = system: SK-OV-3 ovarian
SN12C renal = system: SN12C renal
SNB-19 CNS = system: SNB-19 CNS
SNB-75 CNS = system: SNB-75 CNS
SR leukemia = system: SR leukemia
SW-620 colon = system: SW-620 colon
T-47D breast = system: T-47D breast
TK-10 renal = system: TK-10 renal
U251 CNS = system: U251 CNS
UACC-257 melanoma = system: UACC-257 melanoma
UACC-62 melanoma = system: UACC-62 melanoma
UO-31 renal = system: UO-31 renal
KM12 colon = system: KM12 colon
M14 melanoma = system: M14 melanoma

Measured: TGI

COC(=O)Cc1c2n(c3ccccc13)C(=O)N1c3ccccc3C(CC(=O)OC)C21 (stereo unspecified)
27.5 µM: HOP-92 NSCLC
64.6 µM: NCI-H23 lung
33.6 µM: NCI-H460 lung
49.8 µM: SNB-19 CNS
68.2 µM: SF-295 CNS
64 µM: RXF 393 renal
67.3 µM: MDA-MB-231 breast
49.4 µM: SF-539 CNS
71.6 µM: IGROV1 ovarian
93.9 µM: BT-549 breast
28.5 µM: SNB-75 CNS
47.7 µM: TK-10 renal
38.5 µM: HOP-62 NSCLC
57.1 µM: OVCAR-4 ovarian
not listed: KM12 colon | M14 melanoma
> 100 µM: all other assays above

Cc1nn(C(=O)c2ccccc2O)c2c1C(c1ccc([N+](=O)[O-])cc1)SC(N)=N2 (stereo unspecified)
> 9.22 µM: NCI-H226 lung
9.95 µM: OVCAR-3 ovarian
> 9.13 µM: CCRF-CEM leukemia
> 8.37 µM: ACHN renal
> 8.41 µM: SNB-75 CNS
> 2.67 µM: SF-539 CNS
> 10 µM: all other assays above
